The record followed here is US20060074073A1, “Therapeutic combinations comprising poly (ADP-ribose) polymerases inhibitor” (AGOURON PHARMACEUTICALS, INC., priority 2004, published 2006).

SMILES strings stand for the structures. Several values for one entry are separate records, joined by “and”; a condition that tells them apart may be missing. Equal values may be shown once. Read-outs that look alike come from different tables or passages of the source.

For data set [1] the following is noted: human, in vivo. The procedure: This is an open-label, multi-center, dose-escalation study being conducted in 2 parts. Part 1 of the study was open to patients with advanced tumors.
The PK analysis was conducted on preliminary interim data using nominal collection times.

The next data set has as its system LoVo xenografts. Briefly: In vivo antitumor efficacy with temozolomide, LoVo xenograft. The text has this:
In no combination study was antagonism observed.

The test system of a further data set is LoVo cells. As to the kind of experiment: Inhibition of cell growth and potentiation of temozolomide/topotecan, LoVo. The data set is classed as cell-based.
A further data set deals with PARP. Briefly: Inhibition of cellular NAD consumption in P388 mouse leukemia cells after PARP activation. The data set is classed as cell-based. The conditions noted are these: PARP activated by MNNG, hydrogen peroxide or gamma irradiation, data not shown. The text has this: After DNA damage, cellular NAD is rapidly incorporated into poly-ADP-ribose polymer.

Consider `CNCc1ccc(-c2[nH]c3cc(F)cc4c3c2CCNC4=O)cc1.O=P(O)(O)O` [Compound I, phosphate salt of 8-fluoro-2-{4-[(methylamino)methyl]phenyl}-1,3,4,5-tetrahydro-6H-azepino[5,4,3-cd]indol-6-one], for which the “mean total body clearance” value in data set [1] was determined as 27 L/h. In data set [1] (iv), the “dose proportionality in AUC(0-24) and Cmax” value is “linear dose proportionality”; the mean terminal half-life fell in the range of 6.2 to 10.7 h. In data set [1] (iv, 1 mg/m2), this compound displayed an AUC0-24 of 24.2 ng·h/mL and an AUCinf of 24.2 ng·h/mL. In data set [1] (iv, 2 mg/m2), this compound yielded an AUC0-24 of 139.0 ng·h/mL and an AUCinf of 167.0 ng·h/mL. In data set [1] (iv, 4 mg/m2), this compound showed an AUC0-24 of 237.3 ng·h/mL, an AUCinf of 286.6 ng·h/mL, a CL of 26.0 L/h and a peak concentration (Cmax) of 168.9 ng/mL. Moreover, in data set [1] (iv, 4 mg/m2), the Vss stood at 286.4 L and the t1/2 worked out at 10.7 h. In data set [1] (iv, 8 mg/m2), this compound registered an AUC0-24 of 892.4 ng·h/mL, an AUCinf of 1118.8 ng·h/mL, a CL of 16.9 L/h and a Cmax of 456.4 ng/mL. For the same compound, in data set [1] (iv, 8 mg/m2), the volume of distribution (Vss) was 151.7 L and the t1/2 is 10.5 h. Moreover, in data set [1] (iv, 12 mg/m2), the AUC0-24 was 1017.1 ng·h/mL, the AUCinf is 1163.3 ng·h/mL, the CL was 23.9 L/h and the Cmax was determined as 882.5 ng/mL. In data set [1] (iv, 12 mg/m2), this compound yielded a Vss of 270.1 L and a t1/2 of 10.6 h.
With `CNCc1ccc(-c2[nH]c3cc(F)cc4c3c2CCNC4=O)cc1.O=C[C@H](O)[C@@H](O)[C@H](O)[C@H](O)C(=O)O` [compound of formula 1 glucuronate salt], the body weight loss entry in the data set with LoVo xenografts (LoVo experiment, any dose group) is reported as “No body weight loss”. Further, the “Enhancement (%)” value in the data set with LoVo xenografts (LoVo, temozolomide 68 mg/kg oral + 0.5 mg/kg i.p. (glucuronate salt), once daily for 5 days) is 67% and 67^f %.
Take `CNCc1ccc(-c2[nH]c3cc(F)cc4c3c2CCNC4=O)cc1` [compound of formula 1, 8-fluoro-2-{4-[(methylamino)methyl]phenyl}-1,3,4,5-tetrahydro-6H-azepino[5,4,3-cd]indol-6-one]: in the data set with LoVo cells (+0.4 μM compound of formula 1), the “Temozolomide PF50” value was 8 and 8.1; the “Topotecan PF50” value was 1.6 and 1.7. Also, the concentration for 50% growth inhibition (GI50) in the data set with LoVo cells (Homo sapiens, 120 h, 5-day continuous exposure) came out at 12 µM. Also, the “inhibition of PARP catalytic activity (cellular NAD consumption)” value with PARP is on record as “inhibits PARP catalytic activity”.

Broadly, the Cmax is the maximum level reached in the sampled fluid or tissue. By Vss is commonly meant the apparent volume that relates the amount in the body to the concentration in plasma or blood. A low value points to little distribution into tissue. The term GI50 denotes the concentration giving 50% growth inhibition.
